Each block holds one compound with its values, some of them ahead of it. Active and inactive are the calls of the source.
Key:
[1] = Late stage assay provider results from the probe development effort to identify selective inhibitors of heat shock protein 90 (HSP90): Absorbance-based cell proliferation assay in SKBR3 cells.; type: functional; settings: SK-BR-3
[2] = Late stage assay provider results from the probe development effort to identify selective inhibitors of heat shock protein 90 (HSP90): Absorbance-based cell proliferation assay in MCF7 cells.; type: functional
Prothrombin = Prothrombin (Homo sapiens, UniProt P00734); assay: Thrombin 1536 HTS Dose Response Confirmation. [Related pubchem assays: 1046 (Thrombin 1536 HTS; hits were confirmed in this assay)]; type: functional
[3] = Dd2 malaria parasite growth inhibition potency – SYBR Green, dry powder samples, dose response (AID 1159566); type: functional, cell-based;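 further: potency for growth inhibition with lower SYBR green DNA signal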
[4] = P. falciparum Dd2 growth inhibitors, dose response, SYBR Green, cherry-picked samples (AID 1159567); type: functional, cell-based
[5] = toxicity to human hepatoma HepG2 cells – cell-based, cherry-picked samples, cytotoxicity control, dose response (AID 1159577); type: functional
[6] = growth inhibition of yeast DHODH-expressing 3D7 parasites – SYBR Green, dry powder samples, dose response (AID 1159570); type: functional, cell-based;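 further: parasite growth measured after 72 hours of compound exposure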
[7] = growth inhibition of PfATP4-mutant resistant parasites – NITD609-resistant line, SYBR Green, dry powder, dose response (AID 1159571); type: functional, cell-based;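 further: parasites synchronized at ring stage by sorbitol before testing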
Ephrin type-A receptor 4 = Ephrin type-A receptor 4 (Mus musculus, UniProt Q03137); assay: EphA4 ligand-binding antagonists – biochemical, colorimetric, mouse EphA4, primary screen (AID 689); type: functional
Sequence of Ephrin type-A receptor 4 (Q03137 whole entry): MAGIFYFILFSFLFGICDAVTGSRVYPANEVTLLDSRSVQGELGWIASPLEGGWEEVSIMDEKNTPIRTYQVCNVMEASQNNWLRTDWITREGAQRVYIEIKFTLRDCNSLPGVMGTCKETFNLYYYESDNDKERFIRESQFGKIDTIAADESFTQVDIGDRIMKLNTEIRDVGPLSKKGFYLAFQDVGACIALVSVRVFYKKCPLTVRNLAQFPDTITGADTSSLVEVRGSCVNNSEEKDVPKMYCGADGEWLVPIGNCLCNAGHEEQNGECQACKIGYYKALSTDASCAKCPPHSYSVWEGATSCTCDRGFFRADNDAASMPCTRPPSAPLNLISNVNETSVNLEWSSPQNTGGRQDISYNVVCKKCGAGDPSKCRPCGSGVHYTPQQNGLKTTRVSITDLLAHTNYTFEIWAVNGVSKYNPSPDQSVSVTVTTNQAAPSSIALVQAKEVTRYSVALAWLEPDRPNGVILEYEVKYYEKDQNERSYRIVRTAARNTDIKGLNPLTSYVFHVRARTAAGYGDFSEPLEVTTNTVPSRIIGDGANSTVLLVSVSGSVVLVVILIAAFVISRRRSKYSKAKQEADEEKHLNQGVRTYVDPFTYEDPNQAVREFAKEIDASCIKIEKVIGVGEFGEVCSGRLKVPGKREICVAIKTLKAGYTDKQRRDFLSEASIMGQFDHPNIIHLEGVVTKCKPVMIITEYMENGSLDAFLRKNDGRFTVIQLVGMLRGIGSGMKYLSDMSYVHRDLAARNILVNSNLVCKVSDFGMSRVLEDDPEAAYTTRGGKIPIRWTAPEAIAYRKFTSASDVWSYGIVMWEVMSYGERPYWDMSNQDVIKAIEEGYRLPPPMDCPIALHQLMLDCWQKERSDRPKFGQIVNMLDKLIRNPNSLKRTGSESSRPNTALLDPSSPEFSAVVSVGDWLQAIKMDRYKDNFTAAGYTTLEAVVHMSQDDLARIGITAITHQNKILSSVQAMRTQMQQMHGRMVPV

[8] = molecular target: T1, Rac GTPase-activating protein 1 (Homo sapiens, UniProt Q9H0H5); assay: blockers of MgcRacGAP-driven Rac1 GTP hydrolysis – biochemical, ADP Hunter fluorescence, primary and confirmatory, confirmation (AID 624330); type: functional
T1 sequence (Q9H0H5 whole entry): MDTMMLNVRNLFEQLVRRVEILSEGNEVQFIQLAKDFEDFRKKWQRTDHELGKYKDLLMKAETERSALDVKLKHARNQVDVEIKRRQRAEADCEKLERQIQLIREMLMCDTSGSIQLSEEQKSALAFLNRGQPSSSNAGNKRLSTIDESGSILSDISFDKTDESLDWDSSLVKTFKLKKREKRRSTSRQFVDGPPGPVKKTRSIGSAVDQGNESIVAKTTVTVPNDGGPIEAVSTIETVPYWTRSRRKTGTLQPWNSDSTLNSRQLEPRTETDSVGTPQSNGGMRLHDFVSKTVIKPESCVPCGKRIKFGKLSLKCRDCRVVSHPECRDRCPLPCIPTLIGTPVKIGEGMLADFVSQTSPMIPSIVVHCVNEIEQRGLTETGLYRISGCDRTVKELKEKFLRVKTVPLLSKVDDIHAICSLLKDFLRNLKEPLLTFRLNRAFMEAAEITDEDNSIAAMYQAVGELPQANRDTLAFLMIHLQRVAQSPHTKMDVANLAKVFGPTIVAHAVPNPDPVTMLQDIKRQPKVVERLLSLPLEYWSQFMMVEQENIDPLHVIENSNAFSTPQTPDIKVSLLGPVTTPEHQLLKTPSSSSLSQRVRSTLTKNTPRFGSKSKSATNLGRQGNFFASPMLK

[9] = viability loss in HeLa cells – cytotoxicity control for MgcRacGAP inhibitor project, dose response (AID 624300); type: functional
[10] = molecular target: T2, Corticotropin-releasing factor receptor 2/Corticotropin-releasing factor-binding protein (Homo sapiens, UniProt P24387+Q13324); assay: activators of CRF receptor 2 with binding protein – uHTS hits, confirmation (AID 602473); type: functional; settings: read-out: EC50_Mean
T2 sequence (Q13324 whole entry): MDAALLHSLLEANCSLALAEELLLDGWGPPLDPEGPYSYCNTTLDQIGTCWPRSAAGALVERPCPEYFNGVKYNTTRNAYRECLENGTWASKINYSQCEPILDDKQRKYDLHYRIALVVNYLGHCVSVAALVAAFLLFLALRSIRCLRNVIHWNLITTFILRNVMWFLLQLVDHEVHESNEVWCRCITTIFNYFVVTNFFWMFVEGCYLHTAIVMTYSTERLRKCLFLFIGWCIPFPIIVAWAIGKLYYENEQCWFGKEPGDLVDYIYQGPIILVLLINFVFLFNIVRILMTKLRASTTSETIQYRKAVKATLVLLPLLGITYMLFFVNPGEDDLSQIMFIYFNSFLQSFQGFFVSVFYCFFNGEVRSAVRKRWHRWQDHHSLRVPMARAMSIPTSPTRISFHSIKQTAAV
T2 sequence (P24387 whole entry): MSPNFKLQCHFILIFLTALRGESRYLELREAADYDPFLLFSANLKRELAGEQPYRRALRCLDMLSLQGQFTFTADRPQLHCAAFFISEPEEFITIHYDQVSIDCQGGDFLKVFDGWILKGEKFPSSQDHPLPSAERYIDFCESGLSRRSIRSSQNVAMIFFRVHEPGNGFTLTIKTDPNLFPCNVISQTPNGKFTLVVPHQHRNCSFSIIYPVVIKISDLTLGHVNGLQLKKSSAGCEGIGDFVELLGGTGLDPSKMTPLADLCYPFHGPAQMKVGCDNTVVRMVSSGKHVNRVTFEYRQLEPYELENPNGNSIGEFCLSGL

Protein skinhead-1 = molecular target: T3, Protein skinhead-1 (Caenorhabditis elegans, UniProt P34707); type: functional
T3 sequence (P34707 whole entry): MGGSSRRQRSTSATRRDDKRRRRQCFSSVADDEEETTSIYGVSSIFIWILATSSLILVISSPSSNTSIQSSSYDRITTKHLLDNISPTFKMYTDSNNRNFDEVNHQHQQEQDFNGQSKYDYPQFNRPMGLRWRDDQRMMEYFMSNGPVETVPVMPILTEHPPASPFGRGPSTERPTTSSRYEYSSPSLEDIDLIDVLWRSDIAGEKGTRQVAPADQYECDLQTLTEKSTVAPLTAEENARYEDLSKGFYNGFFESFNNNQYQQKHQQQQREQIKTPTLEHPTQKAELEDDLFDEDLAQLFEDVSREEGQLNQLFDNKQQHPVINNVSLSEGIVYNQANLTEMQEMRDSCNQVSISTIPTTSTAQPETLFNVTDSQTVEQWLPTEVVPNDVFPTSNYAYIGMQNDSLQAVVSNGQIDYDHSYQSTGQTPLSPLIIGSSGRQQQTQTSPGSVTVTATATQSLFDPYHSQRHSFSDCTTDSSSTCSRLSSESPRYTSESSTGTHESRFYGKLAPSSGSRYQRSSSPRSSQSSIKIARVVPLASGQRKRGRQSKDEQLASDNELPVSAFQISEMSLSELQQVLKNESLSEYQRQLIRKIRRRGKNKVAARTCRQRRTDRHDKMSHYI

Cytochrome P450 2D6 = Cytochrome P450 2D6 (Homo sapiens, UniProt P10635);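 further: CYP2D6 member of a cytochrome P450 panel assay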
Sequence of Cytochrome P450 2D6 (P10635 whole entry): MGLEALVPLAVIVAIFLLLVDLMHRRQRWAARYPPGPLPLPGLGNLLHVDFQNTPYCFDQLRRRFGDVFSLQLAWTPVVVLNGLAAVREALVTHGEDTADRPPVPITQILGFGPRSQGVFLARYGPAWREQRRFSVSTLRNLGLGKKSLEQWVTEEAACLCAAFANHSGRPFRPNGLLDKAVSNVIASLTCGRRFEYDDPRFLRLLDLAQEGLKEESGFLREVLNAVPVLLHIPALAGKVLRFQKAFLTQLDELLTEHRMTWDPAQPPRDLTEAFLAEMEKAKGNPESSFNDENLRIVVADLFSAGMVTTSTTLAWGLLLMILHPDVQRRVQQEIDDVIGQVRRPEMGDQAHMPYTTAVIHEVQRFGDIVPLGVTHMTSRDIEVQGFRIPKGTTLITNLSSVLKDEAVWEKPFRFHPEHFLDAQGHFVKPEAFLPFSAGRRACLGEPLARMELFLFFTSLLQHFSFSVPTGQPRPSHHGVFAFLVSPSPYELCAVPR

Caspase-6 = molecular target: T4, Caspase-6 (Homo sapiens, UniProt P55212); assay: inhibition of CASP6 peptide cleavage – biochemical, VEID-R110 fluorescence, cherry-pick, dose response (AID 720632)
T4 sequence (P55212 whole entry): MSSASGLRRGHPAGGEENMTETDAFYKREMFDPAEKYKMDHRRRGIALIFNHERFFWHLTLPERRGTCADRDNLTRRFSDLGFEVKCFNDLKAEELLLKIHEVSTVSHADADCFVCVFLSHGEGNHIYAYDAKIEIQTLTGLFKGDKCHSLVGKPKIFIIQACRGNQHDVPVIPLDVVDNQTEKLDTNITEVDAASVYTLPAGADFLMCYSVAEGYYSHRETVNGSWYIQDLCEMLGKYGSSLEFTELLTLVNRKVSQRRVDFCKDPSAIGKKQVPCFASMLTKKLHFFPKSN

[11] = molecular target: T5, Probable nicotinate-nucleotide adenylyltransferase (Staphylococcus aureus (strain N315), UniProt P65502); type: functional, Staphylococcus aureus subsp. aureus N315;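 on IC50 Mean: confirmatory dose-response retesting of NadD inhibitor hits first found in an ultra-high-throughput screen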
H9c2 = assay: cells; type: functional, cell-based; settings: Rattus norvegicus, H9c2, Myocardium;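 further: confirmatory concentration-response retest of ultra-high-throughput screening hits for modulation of myocardial damage; cell death induced by hydrogen peroxide oxidative stress; compound pretreatment for 60 min then peroxide exposure for 2 h; potency is for protecting the cells against peroxide damage rather than for killing them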
[12] = molecular target: T5, Probable nicotinate-nucleotide adenylyltransferase; type: functional, Staphylococcus aureus subsp. aureus N315; settings: read-out: IC50_Mean
[13] = molecular target: T6, Voltage-gated N-type calcium channel alpha-1B subunit/Amyloid beta A4 precursor protein-binding family A member 1 (Homo sapiens, UniProt Q00975+Q02410); type: protein assay
T6 sequence (Q00975 whole entry): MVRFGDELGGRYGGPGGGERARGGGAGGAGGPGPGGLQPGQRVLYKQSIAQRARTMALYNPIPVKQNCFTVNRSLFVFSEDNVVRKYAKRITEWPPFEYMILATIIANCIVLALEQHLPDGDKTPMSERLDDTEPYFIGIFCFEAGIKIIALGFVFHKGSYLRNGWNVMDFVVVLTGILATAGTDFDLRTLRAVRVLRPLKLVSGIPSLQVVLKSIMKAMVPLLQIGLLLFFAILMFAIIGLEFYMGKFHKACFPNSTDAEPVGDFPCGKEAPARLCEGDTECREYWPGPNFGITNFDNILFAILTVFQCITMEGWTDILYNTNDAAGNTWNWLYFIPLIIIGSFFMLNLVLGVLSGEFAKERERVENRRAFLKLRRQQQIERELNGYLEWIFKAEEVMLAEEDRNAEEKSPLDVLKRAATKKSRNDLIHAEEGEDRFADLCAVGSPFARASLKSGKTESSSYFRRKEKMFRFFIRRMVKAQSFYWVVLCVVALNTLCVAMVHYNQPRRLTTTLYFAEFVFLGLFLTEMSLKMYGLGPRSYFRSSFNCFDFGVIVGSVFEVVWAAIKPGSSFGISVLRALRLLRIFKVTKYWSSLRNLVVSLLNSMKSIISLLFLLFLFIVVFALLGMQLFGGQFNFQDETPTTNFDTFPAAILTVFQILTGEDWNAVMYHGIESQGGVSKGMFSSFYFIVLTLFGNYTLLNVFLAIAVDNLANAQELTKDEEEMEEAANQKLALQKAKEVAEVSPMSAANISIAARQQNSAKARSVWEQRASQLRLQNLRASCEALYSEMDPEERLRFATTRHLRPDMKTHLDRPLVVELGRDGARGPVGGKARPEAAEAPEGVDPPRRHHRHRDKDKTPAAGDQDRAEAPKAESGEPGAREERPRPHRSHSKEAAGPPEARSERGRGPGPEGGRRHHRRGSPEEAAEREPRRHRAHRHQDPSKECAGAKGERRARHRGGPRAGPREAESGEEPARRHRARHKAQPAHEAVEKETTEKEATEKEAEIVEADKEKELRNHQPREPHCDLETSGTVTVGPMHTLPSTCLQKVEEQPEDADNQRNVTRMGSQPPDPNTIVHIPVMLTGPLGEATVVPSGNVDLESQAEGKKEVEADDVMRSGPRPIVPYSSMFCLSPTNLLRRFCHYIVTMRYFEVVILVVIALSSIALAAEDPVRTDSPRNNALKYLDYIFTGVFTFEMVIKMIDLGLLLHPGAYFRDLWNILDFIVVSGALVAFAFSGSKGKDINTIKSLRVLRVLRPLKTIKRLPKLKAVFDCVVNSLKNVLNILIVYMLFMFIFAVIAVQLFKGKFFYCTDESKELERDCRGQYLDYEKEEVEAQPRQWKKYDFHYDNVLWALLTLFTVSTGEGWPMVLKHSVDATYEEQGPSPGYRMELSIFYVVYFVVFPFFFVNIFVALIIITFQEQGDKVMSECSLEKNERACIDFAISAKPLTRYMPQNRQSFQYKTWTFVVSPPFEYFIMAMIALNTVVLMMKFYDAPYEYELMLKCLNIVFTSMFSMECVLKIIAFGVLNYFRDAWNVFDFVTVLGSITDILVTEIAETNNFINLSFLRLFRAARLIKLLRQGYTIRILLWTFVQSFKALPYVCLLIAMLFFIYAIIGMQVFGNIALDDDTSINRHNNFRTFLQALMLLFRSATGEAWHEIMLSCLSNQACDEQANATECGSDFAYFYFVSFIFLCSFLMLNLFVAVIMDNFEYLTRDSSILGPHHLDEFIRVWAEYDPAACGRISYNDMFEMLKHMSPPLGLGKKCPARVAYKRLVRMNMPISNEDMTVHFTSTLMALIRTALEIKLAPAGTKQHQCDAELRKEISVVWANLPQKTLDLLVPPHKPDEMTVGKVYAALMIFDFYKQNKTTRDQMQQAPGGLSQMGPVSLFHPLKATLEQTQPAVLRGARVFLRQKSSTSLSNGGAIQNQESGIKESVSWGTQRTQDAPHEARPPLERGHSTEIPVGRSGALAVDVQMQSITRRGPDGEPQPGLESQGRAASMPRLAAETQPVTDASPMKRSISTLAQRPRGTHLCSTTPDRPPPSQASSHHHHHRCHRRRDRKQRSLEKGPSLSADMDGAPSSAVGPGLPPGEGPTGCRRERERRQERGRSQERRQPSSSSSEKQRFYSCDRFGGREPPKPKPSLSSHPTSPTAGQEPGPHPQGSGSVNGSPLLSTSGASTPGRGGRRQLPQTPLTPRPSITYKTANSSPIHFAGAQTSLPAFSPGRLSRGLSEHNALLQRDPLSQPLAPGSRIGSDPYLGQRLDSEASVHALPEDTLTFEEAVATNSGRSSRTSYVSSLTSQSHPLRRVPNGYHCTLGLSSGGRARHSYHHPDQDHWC
T6 sequence (Q02410 whole entry): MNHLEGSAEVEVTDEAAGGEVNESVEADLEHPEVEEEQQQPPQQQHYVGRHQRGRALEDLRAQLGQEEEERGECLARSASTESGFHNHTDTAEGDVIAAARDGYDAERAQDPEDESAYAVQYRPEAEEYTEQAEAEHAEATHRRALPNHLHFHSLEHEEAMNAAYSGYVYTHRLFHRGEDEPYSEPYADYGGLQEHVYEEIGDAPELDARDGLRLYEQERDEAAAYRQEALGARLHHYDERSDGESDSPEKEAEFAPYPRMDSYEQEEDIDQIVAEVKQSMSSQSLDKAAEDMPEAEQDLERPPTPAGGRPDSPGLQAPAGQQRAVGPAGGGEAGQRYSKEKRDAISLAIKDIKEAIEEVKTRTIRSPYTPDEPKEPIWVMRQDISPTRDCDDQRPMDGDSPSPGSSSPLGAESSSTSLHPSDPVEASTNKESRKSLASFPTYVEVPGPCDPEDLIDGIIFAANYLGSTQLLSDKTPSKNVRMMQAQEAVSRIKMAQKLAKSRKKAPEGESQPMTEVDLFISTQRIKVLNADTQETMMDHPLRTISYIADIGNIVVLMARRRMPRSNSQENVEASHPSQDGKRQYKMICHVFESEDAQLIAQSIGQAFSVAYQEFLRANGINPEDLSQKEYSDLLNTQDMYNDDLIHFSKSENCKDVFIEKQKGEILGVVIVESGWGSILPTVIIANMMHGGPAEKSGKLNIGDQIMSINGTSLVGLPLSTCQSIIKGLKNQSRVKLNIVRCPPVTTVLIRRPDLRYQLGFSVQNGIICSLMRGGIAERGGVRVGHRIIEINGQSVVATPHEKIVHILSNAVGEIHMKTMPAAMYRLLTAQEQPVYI

[14] = molecular target: T6, Voltage-gated N-type calcium channel alpha-1B subunit/Amyloid beta A4 precursor protein-binding family A member 1; type: protein assay; remark: listed apart in the source

SMILES: COc1ccc2oc(=O)c(Br)cc2c1
IC50 [1]: 80.2 µM (inactive)
IC50 [2]: > 100 µM (inactive)

IC50 (Prothrombin): 0.521 µM (active)
SMILES: O=C(c1cccc([N+](=O)[O-])c1)n1nc(-c2ccccc2)nc1NCc1ccccc1

SMILES: COc1ccc2c3c([nH]c2c1)[C@H](CO)N(S(=O)(=O)c1ccc(C)cc1)CC31CCN(C(=O)Cc2cccnc2)CC1
AC50 [3]: 0.332 µM (active)
AC50 [4]: 1.19 µM (active)
AC50 [5]: > 39 µM (inactive)
AC50 [6]: 0.54 µM (active)
AC50 [7]: 0.265 µM (active)

IC50 (Ephrin type-A receptor 4): > 100 µM (not active)
SMILES: N#Cc1sc2nc(-c3cccs3)cc(-c3ccccc3)c2c1N

IC50 [8]: 18.2 µM (active)
SMILES: CCc1nc(Nc2ccc(O)cc2)c2oc3ccccc3c2n1
CC50 [9]: 87.6 µM (active)

EC50 [10]: > 53 µM (inactive)
IC50 (Prothrombin): > 50 µM (not active)
SMILES: Cc1ccc(-c2noc(CN3CCC(C(N)=O)CC3)n2)cc1

SMILES: O=C1OC(=O)/C(=C\NC23CC4CC(CC(C4)C2)C3)C=C1Br
IC50 [1]: 12.9 µM (inactive)
IC50 [2]: 2.6 µM (active)

IC50 (Prothrombin): > 50 µM (not active)
SMILES: CCOc1ccc(NC(=O)c2ccc(CNc3c(N4CCCC4)c(=O)c3=O)cc2)cc1

IC50 (Protein skinhead-1): 60.8 µM (inactive)
IC50 (Ephrin type-A receptor 4): 1.79 µM (active)
AC50 (Cytochrome P450 2D6): 1.78 µM (inconclusive)
SMILES: CCOc1ccc(/C=C/C2=Cc3c(sc(NC(=O)CSc4nnc(N)[nH]4)c3C#N)C(C)(C)C2)cc1

SMILES: CCOc1ccccc1N/C=C1\C(=O)OC(=O)c2ccccc21
IC50 [1]: > 100 µM (inactive)
IC50 [2]: > 100 µM (inactive)

SMILES: Cn1c2ccccc2c2cc(/C=N/NC(=O)c3cc(O)ccc3O)ccc21
AC50 (Caspase-6): 43.1 µM (active)
IC50 [11]: 18 µM (active)
IC50 (H9c2): > 79 µM (inactive)
IC50 [12]: 37.3 µM (active)
IC50 [13]: 4.94 µM (active)
IC50 [14]: 15.2 µM (active)

Reference: ChEMBL document CHEMBL1201862, “PubChem BioAssay data set” (2004)
